Assay: method code SF-HPLC, from DOI: 10.1016/j.ejmech.2014.10.073, PMID: 25462263
Conditions: pH 7.4

Row | Structure (SMILES) | logD
1 | CCCOC(=O)Cc1ccc(OCC(=O)N(CC)CC)c(OCC)c1 | 2.67
2 | CCCOC(=O)Cc1cc(OCC)c(OCC(=O)N(CC)CC)cc1F | 2.72
3 | CCOc1cc(CC(=O)OCCC(F)(F)F)cc(F)c1OCC(=O)N(CC)CC | 3.1
4 | CCCOC(=O)Cc1cc(OC)c(OCC(=O)N(CC)CC)cc1F | 2.36
5 | CCOC(=O)Cc1ccc(OCC(=O)N(CC)CC)c(F)c1OC | 2.29
6 | CCCOC(=O)Cc1ccc(OCC(=O)N(CC)CC)c(OC)c1 | 2.6
7 | CCOc1cc(CC(=O)OCCC(F)(F)F)c(F)cc1OCC(=O)N(CC)CC | 3.06
8 | CCCOC(=O)Cc1cc(F)c(OCC(=O)N(CC)CC)c(OCC)c1 | 2.63
9 | CCOC(=O)Cc1cc(OCC)c(OCC(=O)N(CC)CC)cc1F | 2.57
10 | CCOc1cc(CC(=O)OCC(F)(F)F)c(F)cc1OCC(=O)N(CC)CC | 2.9
11 | CCCOc1cc(CC(=O)OC(C)C)c(F)cc1OCC(=O)N(CC)CC | 2.95
12 | CCN(CC)C(=O)COc1ccc(CC(=O)OCCC(F)(F)F)c(OC)c1F | 2.83
13 | CCN(CC)C(=O)COc1cc(F)c(CC(=O)OCCC(F)(F)F)cc1OC | 2.94
14 | CCN(CC)C(=O)COc1c(F)cc(CC(=O)OCC(F)(F)F)cc1OC | 2.51
15 | CCOC(=O)Cc1cc(OC)c(OCC(=O)N(CC)CC)cc1F | 2.07
16 | CCOc1cc(CC(=O)OCC(C)C)c(F)cc1OCC(=O)N(CC)CC | 3.03
17 | CCN(CC)C(=O)COc1cc(F)c(CC(=O)OC(C)C)cc1OC | 2.19
18 | CCOc1cc(CC(=O)OC(C)C)c(F)cc1OCC(=O)N(CC)CC | 2.59
19 | CCN(CC)C(=O)COc1cc(F)c(CC(=O)OCC(F)(F)F)cc1OC | 2.49
20 | CCOc1cc(CC(=O)OC(C)C)cc(F)c1OCC(=O)N(CC)CC | 2.46
21 | CCOc1cc(CC(=O)OCC(F)(F)F)cc(F)c1OCC(=O)N(CC)CC | 2.78
22 | CCOC(=O)Cc1cc(F)c(OCC(=O)N(CC)CC)c(OCC)c1 | 2.41
23 | CCN(CC)C(=O)COc1c(F)cc(CC(=O)OCCC(F)(F)F)cc1OC | 2.81

Reference: the SangsterLogP compilation
